One assay has as its system 293T/CD cells. Briefly: Suicide effect of CD gene, MTT viability assay and phase contrast microscopy. In kind it is cell-based. The protocol: (§1) Normal 293T cells and 293T/CD cells transformed with pMSCV-puro/CD prepared in Step 1 were plated at a density of 2,000 cells/well in a 24-well plate containing DMEM with 10% fetal bovine serum. After 24 hours, 5-FC was added to the cells at various concentrations (0-10 mM). The media was replaced with fresh medium containing 5-FC every 2 days for 1 week. […] The viability was estimated by measuring mitochondria NADPH activity by 3-(4,5-dimethyl-thiazol-2-yl)-2,5-diphenyltetrazolium bromide (MTT) assay. The cells were incubated in 200 μl of […] MTT (Sigma, U.S.A) in PBS for 4 hours. The solution was replaced with 200 μl of absolute dimethyl sulfoxide (DMSO, Sigma). After incubated at room temperature for 15 minutes, the absorbance at 540 nm was measured with an ELISA reader (Molecular Probe, U.S.A). The data in FIG. 4B are presented as averages ±S.E. with respect to that of the cells grown in the absence of 5-FC from 3 independent experiments.
(In general: Formazan colour is commonly taken as a measure of viable cells.)

The next assay concerns 293T cells. The experiment in a line: Suicide effect control, MTT viability assay. Format: cell-based. As to conditions: normal 293T cells, 1,000 μM 5-FC. On the procedure: as §1
In another assay the test system is MSC/CD cells. Briefly: Suicide effect of CD gene in MSC/CD cells, MTT assay and light microscopy. Format: cell-based, human. The protocol:
CD-expressing retrovirus was used to deliver the CD gene into MSCs. MSCs obtained in Step 1 of Example 1 were grown in growth medium (DMEM containing 10% FBS, 100 units/ml penicillin and 100 μg/ml streptomycin) at 37° C. and 5% CO2 until 70% confluence. CD-expressing retrovirus prepared in Example 2 was added to the culture with 1:1 dilution in the growth medium in the presence of 8 μg/ml polybrene (Sigma) for 8 hours and in the fresh growth medium for 16 hours. After the retroviral transduction was repeated 2 more times, the cells were split into 1:3 in growth medium containing 4 μg/ml puromycin (Sigma) for 14 days. The survived cells were pooled, and used in the subsequent experiments.
(§2) MSC/CD or MSC cells were plated in growth medium at a density of 5,000 cells/well in a 6-well plate one day before exposure to 5-FC. The medium was replaced every 2 days with fresh growth medium containing 0-10 mM 5-FC for 2 weeks. […] The viability was estimated by measuring mitochondria NADPH activity using MTT assay as mentioned above with 293T/CD cells. The data are presented as averages ±S.E with respect to that of the untreated cells from 3 independent experiments (FIG. 6B).

Another assay concerns MSC cells. Briefly: Suicide effect control in MSCs, MTT assay. As to conditions: up to 1,000 μM 5-FC, 2 weeks. In kind it is cell-based, human. The protocol: as §2
Another assay concerns C6 glioma cells. Briefly: Cytotoxic effect of 5-FU on glioma cells, MTT assay. Format: cell-based. As to conditions: C6, 5-FU 1 week. The protocol: (§3) To verify that 5-FU produced by MSC/CD is sufficient to induce cell death in various glioma cells, C6 (KCLB No. 10107), U373 (KCLB No. 30017), U87 (KCLB No. 30014) cells were freshly obtained from KCLB (Korean cell line bank) and plated in 96-well plates in growth medium at a density of 100 cells/well, 100 cells/well, and 500 cells/well, respectively. After 24 hours, 5-FU was added to the cells at 0.01-100 μM. After 1 week, cell viability was estimated by MTT assay as described above.

For another assay, the system named is U373 glioma cells. Described as above. In kind it is cell-based. As to conditions: U373, 5-FU 1 week. The protocol:
as §3

For the next assay, the system named is U87 glioma cells. Described as above. In kind it is cell-based. The note with it: U87, 5-FU 1 week. The protocol:
as §3

Take `Nc1nc(=O)[nH]cc1F` [5-FC, 5-fluorocytosine]: the “viability by phase contrast microscopy” value in the assay on 293T/CD cells (293T/CD cells, 1,000 μM 5-FC) is recorded as “reduced”. Besides, the “concentration from which cell death was detected” value in the assay on 293T/CD cells (293T/CD cells, 5-FC for 1 week, MTT) stood at 10 µM; with MSC/CD cells (MSC/CD cells, 5-FC for 2 weeks, MTT), 100 µM. Further, the IC50 with 293T/CD cells (Homo sapiens, HEK-293T, 168 h, 293T/CD cells, 5-FC for 1 week, MTT, read-out: IC50 of cell death) amounted to 296 µM; in the assay with MSC/CD cells (Homo sapiens, 336 h, MSC/CD cells, 5-FC for 2 weeks, MTT, read-out: IC50 of cell death) it was 332 µM. Moreover, the cell death result in the assay on 293T cells and in the assay with MSC cells was “did not show cell death” each time. Further, the “cell death by light microscopy” value in the assay on MSC/CD cells (MSC/CD cells, 1,000 μM 5-FC for 2 weeks) is listed as “almost died”.
`O=c1[nH]cc(F)c(=O)[nH]1` [5-FU, 5-fluorouracil]: the “concentration at which cell death reached plateau” value with C6 glioma cells, in the assay on U373 glioma cells and in the assay on U87 glioma cells was 10 µM in each case. Further, the IC50 in the assay on C6 glioma cells (C6 glioma, 168 h, read-out: IC50 of cell death) came out at 0.93 µM; in the assay on U373 glioma cells (Homo sapiens, U373 MG, 168 h, read-out: IC50 of cell death), 5.34 µM; in the assay on U87 glioma cells (Homo sapiens, U-87 MG, 168 h, read-out: IC50 of cell death) it was 5.65 µM.

Usually IC50 stands for the midpoint of a concentration-inhibition curve.

These data come from patent US20080241115A1, “Use Of Mesenchymal Stem Cells Genetically Modified To Express A Suicide Gene For Treating A Cancer” (Ajou University Industry-Academic Cooperation Foundation, priority 2005, published 2008).
